These compounds were tested against human GPR40 (Homo sapiens (Human), UniProt O14842) (assay: GPR40 Calcium Flux Assay). Settings: transfected HEK293 cells stably expressing human GPR40; Ca2+ mobilization; mean data; read-out: hGPR40 Ca^2+ Assay EC50.
human GPR40, sequence (O14842 whole entry): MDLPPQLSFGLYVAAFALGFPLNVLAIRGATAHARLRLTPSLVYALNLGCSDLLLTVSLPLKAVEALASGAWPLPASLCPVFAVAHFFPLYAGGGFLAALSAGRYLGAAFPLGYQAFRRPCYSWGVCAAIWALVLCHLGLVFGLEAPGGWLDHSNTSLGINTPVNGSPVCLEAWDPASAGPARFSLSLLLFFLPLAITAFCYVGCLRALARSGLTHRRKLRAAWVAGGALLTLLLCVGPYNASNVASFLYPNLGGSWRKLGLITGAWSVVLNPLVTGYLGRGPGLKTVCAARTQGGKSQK
Format: cell-based
Protocol: Compounds were tested in a calcium flux assay using transfected HEK293 cells stably expressing either human GPR40 or rat GPR40. Human GPR40 expressing cells were cultured in DMEM-High Glucose media supplemented with 10% fetal bovine serum, 1×L-Glutamine, 1×Penicillin/Streptomycin and 500 μg/mL G418. Rat GPR40 expressing cells were cultured in DMEM-High Glucose media supplemented with 10% fetal bovine serum and 1 μg/mL puromycin. Cells were plated into poly-D-lysine coated 384-well plates and cultured overnight in a 37° C. humidified tissue culture incubator under 5% CO2/[…] atmosphere. On the day of the experiment, the culture media was replaced with assay buffer (HBSS, 20 mM HEPES, 0.1% BSA) and the cells incubated at 37° C. for 1 h. Calcium-sensitive fluorescent dye (Fluo 8 No-Wash Calcium Dye, ABD Bioquest) was then added and the cells incubated for another 30 min at 37° C. followed by 15 min at room temperature while protected from the light. The cell plate and a plate of diluted compounds of Formula (I) were loaded into a fluorescent plate reader that added compounds onto the cells while measuring the fluorescence intensity of each well. The plate reader recorded fluorescence intensity at 1 second intervals for 8 min and provided the data for analysis in an Excel format. EC50 values were calculated using Prism (GraphPad) software.
Work on `Cc1ccccc1-c1csc2ccc(COc3ccc(CCC(=O)O)cc3)cc12` [Cpd 1, 3-[4-[[3-(2-Methylphenyl)benzo[b]thiophen-5-yl]methoxy]phenyl]propanoic acid] yielded an EC50 of 7 nM. For `CC#C[C@@H](CC(=O)O)c1ccc(OCc2ccc3scc(-c4ccc(OCC5(O)CCS(=O)(=O)CC5)cc4C)c3c2)cc1` [Cpd 3, (3S)-3-[4-[[3-[4-[(4-Hydroxy-1,1-dioxo-thian-4-yl)methoxy]-2-methyl-phenyl]benzo[b]thiophen-5-yl]methoxy]phenyl]hex-4-ynoic acid], the EC50 was 5 nM. Work on `CC#C[C@@H](CC(=O)O)c1ccc(OCc2ccc3scc(-c4ccc(OCCCS(C)(=O)=O)cc4C)c3c2)cc1` [Cpd 4, (3S)-3-[4-[[3-[2-Methyl-4-(3-methylsulfonylpropoxy)phenyl]benzo[b]thiophen-5-yl]methoxy]phenyl]hex-4-ynoic acid] yielded an EC50 of 3 nM. For `CC#C[C@@H](CC(=O)O)c1ccc(OCc2ccc3scc(-c4ccc(C(=O)N5CCS(=O)(=O)CC5)cc4C)c3c2)cc1` [Cpd 5, (3S)-3-[4-[[3-[4-(1,1-Dioxo-1,4-thiazinane-4-carbonyl)-2-methyl-phenyl]benzo[b]thiophen-5-yl]methoxy]phenyl]hex-4-ynoic acid], the EC50 was 23 nM. `CC#C[C@@H](CC(=O)O)c1ccc(OCc2ccc3scc(-c4ccc(C5=CCS(=O)(=O)CC5)cc4C)c3c2)cc1` [Cpd 6, (3S)-3-[4-[[3-[4-(1,1-Dioxo-3,6-dihydro-2H-thiopyran-4-yl)-2-methyl-phenyl]benzo[b]thiophen-5-yl]methoxy]phenyl]hex-4-ynoic acid] showed an EC50 of 15 nM. With `CC#C[C@@H](CC(=O)O)c1ccc(OCc2ccc3scc(-c4ccc(O)cc4C)c3c2)cc1` [Cpd 7, (3S)-3-[4-[[3-(4-Hydroxy-2-methyl-phenyl)benzo[b]thiophen-5-yl]methoxy]phenyl]hex-4-ynoic acid] the EC50 was 7 nM. `CC#C[C@@H](CC(=O)O)c1ccc(OCc2ccc3scc(-c4ccc(C5CCS(=O)(=O)CC5)cc4C)c3c2)cc1` [Cpd 8, (3S)-3-[4-[[3-[4-(1,1-Dioxothian-4-yl)-2-methyl-phenyl]benzo[b]thiophen-5-yl]methoxy]phenyl]hex-4-ynoic acid] was tested, and the EC50 was 20 nM. In the case of `CC#C[C@@H](CC(=O)O)c1ccc(OCc2ccc3sc(C)c(-c4ccc(OC5CCS(=O)(=O)CC5)cc4C)c3c2)cc1` [Cpd 9, (3S)-3-[4-[[3-[4-(1,1-Dioxothian-4-yl)oxy-2-methyl-phenyl]-2-methyl-benzo[b]thiophen-5-yl]methoxy]phenyl]hex-4-ynoic acid], the EC50 is reported as 17 nM. `CC#C[C@@H](CC(=O)O)c1ccc(OCc2ccc3scc(-c4c(C)cccc4C)c3c2)cc1` [Cpd 10, (3S)-3-[4-[[3-(2,6-Dimethylphenyl)benzo[b]thiophen-5-yl]methoxy]phenyl]hex-4-ynoic acid] gave an EC50 of 41 nM. `CC#C[C@@H](CC(=O)O)c1ccc(OCc2ccc3scc(-c4ccc(OCCC5(O)CC5)cc4C)c3c2)cc1` [Cpd 11, (3S)-3-(4-((3-(4-(2-(1-Hydroxycyclopropyl)ethoxy)-2-methylphenyl)benzo[b]thiophen-5-yl)methoxy)phenyl)hex-4-ynoic acid] showed an EC50 of 16 nM. For `CC#C[C@@H](CC(=O)O)c1ccc(OCc2ccc3scc(-c4ccc(OCCC(C)(C)O)cc4C)c3c2)cc1` [Cpd 12, (3S)-3-(4-((3-(4-(3-Hydroxy-3-methylbutoxy)-2-methylphenyl)benzo[b]thiophen-5-yl)methoxy)phenyl)hex-4-ynoic acid], the EC50 was 9 nM. Work on `CC#C[C@@H](CC(=O)O)c1ccc(OCc2ccc3scc(-c4ccc(OCC(O)CO)cc4C)c3c2)cc1` (stereo partly drawn) [Cpd 13, (3S)-3-(4-((3-(4-(2,3-Dihydroxypropoxy)-2-methylphenyl)benzo[b]thiophen-5-yl)methoxy)phenyl)hex-4-ynoic acid] yielded an EC50 of 7 nM. `CC#C[C@@H](CC(=O)O)c1ccc(OCc2ccc3scc(-c4ccc(OCC5(C)COC5)cc4C)c3c2)cc1` [Cpd 14, (3S)-3-(4-((3-(2-Methyl-4-((3-methyloxetan-3-yl)methoxy)phenyl)benzo[b]thiophen-5-yl)methoxy)phenyl)hex-4-ynoic acid] gave an EC50 of 9 nM. `CC#C[C@@H](CC(=O)O)c1ccc(OCc2ccc3scc(-c4ccc(OC5CCOCC5)cc4C)c3c2)cc1` [Cpd 15, (3S)-3-(4-((3-(2-Methyl-4-((tetrahydro-2H-pyran-4-yl)oxy)phenyl)benzo[b]thiophen-5-yl)methoxy)phenyl)hex-4-ynoic acid] gave an EC50 of 2 nM. `CC#C[C@@H](CC(=O)O)c1ccc(OCc2ccc3scc(-c4ccc(OCC5CCS(=O)(=O)CC5)cc4C)c3c2)cc1` [Cpd 17, (3S)-3-(4-((3-(4-((1,1-Dioxidotetrahydro-2H-thiopyran-4-yl)methoxy)-2-methylphenyl)benzo[b]thiophen-5-yl)methoxy)phenyl)hex-4-ynoic acid] gave an EC50 of 6 nM. `CC#C[C@@H](CC(=O)O)c1ccc(OCc2ccc3scc(-c4ccc(OCC5(C)CS(=O)(=O)C5)cc4C)c3c2)cc1` [Cpd 18, (3S)-3-(4-((3-(2-Methyl-4-((3-methyl-1,1-dioxidothietan-3-yl)methoxy)phenyl)benzo[b]thiophen-5-yl)methoxy)phenyl)hex-4-ynoic acid] gave an EC50 of 11 nM. For `CC#C[C@@H](CC(=O)O)c1ccc(OCc2ccc3scc(-c4ccccc4Cl)c3c2)cc1` [Cpd 19, (3S)-3-(4-((3-(2-Chlorophenyl)benzo[b]thiophen-5-yl)methoxy)phenyl)hex-4-ynoic acid], the EC50 was 8 nM. For `CC#C[C@@H](CC(=O)O)c1ccc(OCc2ccc3scc(-c4ccccc4Br)c3c2)cc1` [Cpd 20, (3S)-3-(4-((3-(2-Bromophenyl)benzo[b]thiophen-5-yl)methoxy)phenyl)hex-4-ynoic acid], the EC50 was 5 nM. Compound `CC#C[C@@H](CC(=O)O)c1ccc(OCc2ccc3scc(-c4ccccc4C(F)(F)F)c3c2)cc1` [Cpd 21, (3S)-3-(4-((3-(2-(Trifluoromethyl)phenyl)benzo[b]thiophen-5-yl)methoxy)phenyl)hex-4-ynoic acid] has an EC50 of 8 nM. With `CC#C[C@@H](CC(=O)O)c1ccc(OCc2ccc3scc(-c4cccnc4C)c3c2)cc1` [Cpd 22, (3S)-3-(4-((3-(2-Methylpyridin-3-yl)benzo[b]thiophen-5-yl)methoxy)phenyl)hex-4-ynoic acid] the EC50 was 8 nM. In the case of `CC#C[C@@H](CC(=O)O)c1ccc(COc2ccc3scc(-c4ccccc4C)c3c2)cc1` [Cpd 23, (3S)-3-(4-(((3-(2-Methylphenyl)benzo[b]thiophen-5-yl)oxy)methyl)phenyl)hex-4-ynoic acid], the EC50 is reported as 10 nM. In the case of `CC#C[C@@H](CC(=O)O)c1ccc(COc2ccc3scc(-c4ccc(OCCCS(C)(=O)=O)cc4C)c3c2)cc1` [Cpd 24, (3S)-3-(4-(((3-(2-Methyl-4-(3-(methylsulfonyl)propoxy)phenyl)benzo[b]thiophen-5-yl)oxy)methyl)phenyl)hex-4-ynoic acid], the EC50 is reported as 9 nM. `CC#C[C@@H](CC(=O)O)c1ccc(COc2ccc3scc(-c4ccc(C5=CCS(=O)(=O)CC5)cc4C)c3c2)cc1` [Cpd 25, (3S)-3-(4-(((3-(4-(1,1-Dioxido-3,6-dihydro-2H-thiopyran-4-yl)-2-methylphenyl)benzo[b]thiophen-5-yl)oxy)methyl)phenyl)hex-4-ynoic acid] was tested, and the EC50 was 24 nM. `CC#C[C@@H](CC(=O)O)c1ccc(COc2ccc3scc(-c4ccc(C5CCS(=O)(=O)CC5)cc4C)c3c2)cc1` [Cpd 26, (3S)-3-(4-(((3-(4-(1,1-Dioxidotetrahydro-2H-thiopyran-4-yl)-2-methylphenyl)benzo[b]thiophen-5-yl)oxy)methyl)phenyl)hex-4-ynoic acid] showed an EC50 of 18 nM. For `CC#C[C@@H](CC(=O)O)c1ccc(COc2ccc3scc(-c4c(C)cccc4C)c3c2)cc1` [Cpd 27, (3S)-3-(4-(((3-(2,6-Dimethylphenyl)benzo[b]thiophen-5-yl)oxy)methyl)phenyl)hex-4-ynoic acid], the EC50 was 20 nM. `Cc1cc(C2=CCS(=O)(=O)CC2)ccc1-c1csc2ccc(COc3ccc(C4(CC(=O)O)CC(=O)C4)cc3)cc12` [Cpd 28, 2-(1-(4-((3-(4-(1,1-Dioxido-3,6-dihydro-2H-thiopyran-4-yl)-2-methylphenyl)benzo[b]thiophen-5-yl)methoxy)phenyl)-3-oxocyclobutyl)acetic acid] gave an EC50 of 12 nM. `Cc1cc(C2CCS(=O)(=O)CC2)ccc1-c1csc2ccc(COc3ccc(C4(CC(=O)O)CC(=O)C4)cc3)cc12` [Cpd 29, 2-(1-(4-((3-(4-(1,1-Dioxidotetrahydro-2H-thiopyran-4-yl)-2-methylphenyl)benzo[b]thiophen-5-yl)methoxy)phenyl)-3-oxocyclobutyl)acetic acid] showed an EC50 of 34 nM. `Cc1ccccc1-c1csc2ccc(COc3ccc(C4(CC(=O)O)CC(=O)C4)cc3)cc12` [Cpd 30, 2-(3-Oxo-1-(4-((3-(2-methylphenyl)benzo[b]thiophen-5-yl)methoxy)phenyl)cyclobutyl)acetic acid] was tested, and the EC50 was 6 nM. Compound `Cc1ccccc1-c1csc2ccc(COc3ccc([C@]4(CC(=O)O)C[C@@H](O)C4)cc3)cc12` [Cpd 31] has an EC50 of 48 nM. Work on `CCOCCOc1ccc(-c2csc3ccc(COc4ccc(C5(CC(=O)O)CC(=O)C5)cc4)cc23)c(C)c1` [Cpd 32, 2-(1-(4-((3-(4-(2-Ethoxyethoxy)-2-methylphenyl)benzo[b]thiophen-5-yl)methoxy)phenyl)-3-oxocyclobutyl)acetic acid] yielded an EC50 of 36 nM.
